Data from patent US12122785B2, “Substituted pyridines, pyridazines, pyrimidines, and 1,2,4-triazines as TYK2 inhibitors” (Sudo Biosciences Limited, priority 2021, dated 2024).
pIC50: −log10 of the molar value.

Tests used:
[1] = test system: TYK2 pseudokinase (JH2); IL-23-stimulated HEK-Blue IL-23 cells; test: HEK-Blue IL-23 reporter assay (STAT3-inducible SEAP) for profiling TYK2 pseudokinase (JH2) inhibition; type: cell-based; conditions: 10 ng/mL human recombinant IL-23, SEAP readout, read-out: IL23 (TYK2 inhibitory activity, IC50)
Method: (§1) Example B-1: HEK-Blue™ IL-23 and IFNα/β Reporter Assays for Profiling TYK2 Pseudokinase (JH2) Inhibition
(§2) HEK-Blue™ IL-23 and IFNα/β cells with a stably-integrated cytokine receptor and STAT3 or STAT1 express STAT-inducible secreted embryonic alkaline phosphatase (SEAP) reporter gene upon cytokine stimulation. These cells are plated in DMEM (Gibco) containing 10% heat-inactivated FBS (Gibco) and 100 U/mL PenStrep (Gibco) at 37° C. under 5% CO2 conditions for 20-22 hours. The cells are then pretreated with serially diluted test compounds for 60 min prior to stimulation with either 10 ng/mL human recombinant IL-23 (Miltenyl Biotech) or 1 ng/mL human recombinant IFNα (InvivoGen) for 22-24 hours for IL-23 or 16-18 h for IFNα. SEAP induction is measured using the QUANTI Blue™ Solution (InvivoGen) according to the manufacturer's instructions.

[2] = test system: TYK2 pseudokinase (JH2); IFNα-stimulated HEK-Blue IFNα/β cells; test: HEK-Blue IFNα/β reporter assay (STAT1-inducible SEAP) for profiling TYK2 pseudokinase (JH2) inhibition; type: cell-based; conditions: 1 ng/mL human recombinant IFNα, SEAP readout, read-out: IFNα (TYK2 inhibitory activity, IC50)
Method: as §1, §2

[3] = biological target: T1, TYK2 kinase domain (JH1) (Homo sapiens, UniProt P29597); test: HTRF-based selectivity assay, TYK2 catalytic domain; type: biochemical; conditions: 20 μM ATP
T1 construct: recombinant purified His or GST-tagged catalytic domain for each enzyme; made in house
T1 sequence (P29597 897-1176 limits assumed): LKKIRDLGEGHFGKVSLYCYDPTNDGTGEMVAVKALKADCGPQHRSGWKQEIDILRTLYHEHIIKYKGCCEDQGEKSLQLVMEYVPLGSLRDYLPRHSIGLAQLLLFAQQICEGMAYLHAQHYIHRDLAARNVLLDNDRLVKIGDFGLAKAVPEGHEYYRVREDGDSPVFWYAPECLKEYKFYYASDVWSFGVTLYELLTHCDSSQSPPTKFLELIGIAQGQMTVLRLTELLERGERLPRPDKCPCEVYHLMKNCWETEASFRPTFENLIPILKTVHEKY
Method: (§3) Example B-2: HTRF-Based Selectivity Assay
(§4) The ability of compounds to inhibit the activity of JAK1, JAK2, JAK3 and TYK2 is measured using a recombinant purified His or GST-tagged catalytic domain for each enzyme (JAK1, JAK2 and TYK2 are generated in-house; JAK3 was purchased from Carna biosciences, Cat #08-046) in an HTRF format biochemical assay. The reactions employs a commercial peptide substrate from Cisbio (Cat #62TK0PEC). The basic assay protocol is as follows: first, 2.5 μL of diluted compounds (4×) in DMSO are dispensed into a 384-well Optiplate. Next, 2.5 μL of enzyme (final concentrations for enzymes are: TYK2—700 ng/mL, JAK1—80.6 ng/mL, JAK2—2.1 ng/mL and JAK3—171.8 ng/mL) is added and incubated at RT for 5-20 min. Finally, 5 μl of mixture of 2×ATP [Final concentration 20 μM for TYK2, 21.43 μM for JAK1, 14.7 μM for JAK2 and 2.12 μM for JAK3]+2× Substrate [Final concentration 217 nM for TYK2, 454.7 nM for JAK1, 200 nM for JAK2 and 257.4 nM for JAK3] is added to 384 well Optiplate. Composition of Kinase assay buffer used in the assay is as follows: HEPES 50 mM, EGTA 1 mM, MgCl2 10 mM, DTT 2 mM, Tween-20 0.01% and water. Then the plates are shaken and then incubated at 26.5° C. for 60 min.

[4] = biological target: T2, JAK1 kinase domain (JH1) (Homo sapiens, UniProt P23458); test: HTRF-based selectivity assay, JAK1 catalytic domain; type: biochemical; conditions: 21.43 μM ATP, read-out: JAK-JHI (IC50)
T2 construct: recombinant purified His or GST-tagged catalytic domain for each enzyme; made in house
Method: as §3, §4

[5] = biological target: T3, JAK2 kinase domain (JH1) (Homo sapiens, UniProt O60674); test: HTRF-based selectivity assay, JAK2 catalytic domain; type: biochemical; conditions: 14.7 μM ATP
T3 construct: recombinant purified His or GST-tagged catalytic domain for each enzyme; made in house
Method: as §3, §4

[6] = biological target: T4, JAK3 kinase domain (JH1) (Homo sapiens, UniProt P52333); test: HTRF-based selectivity assay, JAK3 catalytic domain; type: biochemical; conditions: 2.12 μM ATP
T4 construct: recombinant purified His or GST-tagged catalytic domain for each enzyme; purchased Carna biosciences 08-046
Method: as §3, §4

[7] = test system: IL-2-stimulated HEK-Blue IL-2 reporter cells; test: HEK-Blue IL-2 reporter assay (STAT5-inducible SEAP) for determining selectivity; type: cell-based; conditions: 4 ng/mL human recombinant IL-2, 24 hours
Method: (§5) Example B-3: HEK-Blue™ IL-2 and IFNγ Reporter Assays for Determining Selectivity
(§6) HEK-Blue™ IL-2 and IFNγ reporter cells with a stably-integrated cytokine receptor and STAT5 or STAT1 express STAT-inducible secreted embryonic alkaline phosphatase (SEAP) reporter gene upon cytokine stimulation. These cells were plated in DMEM (Gibco) containing 10% heat-inactivated FBS (Gibco) and 100 U/mL PenStrep (Gibco) at 37° C. under 5% CO2 conditions for 20-22 hours. The cells were then pretreated with serially diluted test compounds for 60 min prior to stimulation with either 4 ng/mL human recombinant IL-2 (Miltenyl Biotech) or 50 ng/mL human recombinant IFNγ (InvivoGen) for 24 hours. SEAP induction was measured using the QUANTI-Blue™ Solution (InvivoGen) according to the manufacturer's instructions.

[8] = test system: IFNγ-stimulated HEK-Blue IFNγ reporter cells; test: HEK-Blue IFNγ reporter assay (STAT1-inducible SEAP) for determining selectivity; type: cell-based; conditions: 50 ng/mL human recombinant IFNγ, 24 hours, read-out: IFN-γ SEAP selectivity assay IC50
Method: as §5, §6

T4 sequence (P52333 822-1111 limits assumed): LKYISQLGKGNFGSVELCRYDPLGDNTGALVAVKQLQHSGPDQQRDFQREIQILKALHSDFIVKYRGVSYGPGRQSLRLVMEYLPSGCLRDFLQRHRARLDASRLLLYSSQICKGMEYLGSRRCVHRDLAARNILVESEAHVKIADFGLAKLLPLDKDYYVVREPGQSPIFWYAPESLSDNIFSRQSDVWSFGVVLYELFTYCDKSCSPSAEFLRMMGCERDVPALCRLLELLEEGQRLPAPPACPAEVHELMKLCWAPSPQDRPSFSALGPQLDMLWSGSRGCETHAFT
T2 sequence (P23458 875-1153 limits assumed): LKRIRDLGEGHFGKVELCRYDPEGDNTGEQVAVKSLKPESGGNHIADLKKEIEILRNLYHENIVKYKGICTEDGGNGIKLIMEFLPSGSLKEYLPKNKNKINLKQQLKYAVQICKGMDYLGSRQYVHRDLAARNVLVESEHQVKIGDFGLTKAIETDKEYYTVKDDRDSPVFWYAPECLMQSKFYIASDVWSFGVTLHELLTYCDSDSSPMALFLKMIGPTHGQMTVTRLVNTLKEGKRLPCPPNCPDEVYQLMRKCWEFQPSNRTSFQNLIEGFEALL
T3 sequence (O60674 849-1124 limits assumed): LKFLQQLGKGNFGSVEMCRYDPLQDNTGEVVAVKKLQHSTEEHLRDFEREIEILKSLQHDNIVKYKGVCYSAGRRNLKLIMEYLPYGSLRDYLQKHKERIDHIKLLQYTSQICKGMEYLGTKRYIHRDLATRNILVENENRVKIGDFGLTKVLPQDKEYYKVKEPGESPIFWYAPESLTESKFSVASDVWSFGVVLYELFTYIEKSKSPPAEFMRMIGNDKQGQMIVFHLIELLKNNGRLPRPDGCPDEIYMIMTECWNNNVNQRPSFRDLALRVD

Compound	pIC50 [1]	pIC50 [2]	pIC50 [3]	pIC50 [4]	pIC50 [5]	pIC50 [6]	pIC50 [7]	pIC50 [8]
[2H]C([2H])([2H])NC(=O)c1cnc(NC(=O)C2CC2)cc1Nc1cccc2c1N(C)Cc1cnn(C)c1-2 [Compound 51, 6-(cyclopropanecarboxamido)-4-((1,5-dimethyl-4,5-dihydro-1H-pyrazolo[4,3-c]quinolin-6-yl)amino)-N-(methyl-d3)nicotinamide]	> 7.52	6.52 to 7.52	< 6.00	< 6.00	< 6.00	< 6.00	< 6.00	< 6.00
COC(=O)c1cnc(NC(=O)C2CC2)cc1Nc1cccc2c1N(C)Cc1cn(C)nc1-2 [Compound 60, methyl 6-(cyclopropanecarboxamido)-4-((2,5-dimethyl-4,5-dihydro-2H-pyrazolo[4,3-c]quinolin-6-yl)amino)nicotinate]	> 7.52	> 7.52	< 6.00	< 6.00	< 6.00	< 6.00	< 6.00	< 6.00
[2H]C([2H])([2H])NC(=O)c1cnc(NC(=O)C2CC2)cc1Nc1cccc2c1N(C)[C@@H](C)c1cn(C)nc1-2 (single isomer, unassigned) [Compound 30]	> 7.52	> 7.52	< 6.00	< 6.00	< 6.00	< 6.00		
Cn1cc2c(n1)-c1cccc(Nc3cc(NC(=O)C4CC4)nc4[nH]n(C)c(=O)c34)c1OC2 [Compound 88, N-(2-methyl-4-((2-methyl-2,4-dihydrochromeno[4,3-c]pyrazol-6-yl)amino)-3-oxo-2,3-dihydro-1H-pyrazolo[3,4-b]pyridin-6-yl)cyclopropanecarboxamide]	6.00 to 6.52	< 6.00	< 6.00		< 6.00	< 6.00	< 6.00	< 6.00
[2H]C([2H])([2H])NC(=O)c1cnc(Nc2ccc(F)cn2)cc1Nc1cccc2c1OCc1cn(C)nc1-2 [Compound 7, 6-((5-fluoropyridin-2-yl)amino)-N-(methyl-d3)-4-((2-methyl-2,4-dihydrochromeno[4,3-c]pyrazol-6-yl)amino)nicotinamide]	6.52 to 7.52	6.00 to 6.52	< 6.00	< 6.00	< 6.00	< 6.00	< 6.00	6.00 to 6.52
[2H]C([2H])([2H])NC(=O)c1nnc(NC(=O)C2CC2)cc1Nc1nccc2c1N(C)[C@H](C)c1cn(C)nc1-2 (single isomer, unassigned) [Compound 70]	> 7.52	> 7.52	< 6.00	< 6.00	6.52 to 7.52	6.00 to 6.52	< 6.00	
[2H]C([2H])([2H])NC(=O)c1cnc(NC(=O)C2CC2)cc1Nc1cccc2c1N(C)Cc1cn(C3COC3)nc1-2 [Compound 29, 6-(cyclopropanecarboxamido)-N-(methyl-d3)-4-((5-methyl-2-(oxetan-3-yl)-4,5-dihydro-2H-pyrazolo[4,3-c]quinolin-6-yl)amino)nicotinamide]	> 7.52	> 7.52	< 6.00	< 6.00	< 6.00		< 6.00	< 6.00
CN1Cc2cn(C)nc2-c2cccc(Nc3cc(NC(=O)C4CC4)nc4[nH]n(C)c(=O)c34)c21 [Compound 89, N-(4-((2,5-dimethyl-4,5-dihydro-2H-pyrazolo[4,3-c]quinolin-6-yl)amino)-2-methyl-3-oxo-2,3-dihydro-1H-pyrazolo[3,4-b]pyridin-6-yl)cyclopropanecarboxamide]	> 7.52	6.52 to 7.52	< 6.00		< 6.00	< 6.00	< 6.00	< 6.00
[2H]C([2H])([2H])NC(=O)c1cnc(NC(=O)[C@H]2C[C@H]2F)cc1Nc1cccc2c1N(C)Cc1cn(C)nc1-2 (single isomer, unassigned) [Compound 32]	> 7.52	> 7.52	< 6.00	< 6.00	< 6.00	< 6.00	< 6.00	
[2H]C([2H])([2H])NC(=O)c1nnc(NC(=O)C2CC2)cc1Nc1nccc2c1N(C)Cc1cc(C)nn1-2 [Compound 68, 6-(cyclopropanecarboxamido)-4-((2,5-dimethyl-4,5-dihydropyrazolo[1,5-a]pyrido[3,4-e]pyrazin-6-yl)amino)-N-(methyl-d3)pyridazine-3-carboxamide]	> 7.52	> 7.52	< 6.00	< 6.00	< 6.00	< 6.00	< 6.00	
[2H]C([2H])([2H])NC(=O)c1cnc(NC(=O)C2CC2)cc1Nc1cccc2c1N(C)C([2H])([2H])c1cn(C)nc1-2 [Compound 35, 6-(cyclopropanecarboxamido)-4-((2,5-dimethyl-4,5-dihydro-2H-pyrazolo[4,3-c]quinolin-6-yl-4,4-d2)amino)-N-(methyl-d3)nicotinamide]	> 7.52	> 7.52	< 6.00	< 6.00	< 6.00	< 6.00	< 6.00	
[2H]C([2H])([2H])NC(=O)c1nnc(NC(=O)C2CC2)cc1Nc1cccc2c1N(C([2H])([2H])[2H])Cc1cn(C)nc1-2 [Compound 28, 6-(cyclopropanecarboxamido)-N-(methyl-d3)-4-((2-methyl-5-(methyl-d3)-4,5-dihydro-2H-pyrazolo[4,3-c]quinolin-6-yl)amino)pyridazine-3-carboxamide]	> 7.52	> 7.52		< 6.00	< 6.00	< 6.00	6.00 to 6.52	6.52 to 7.52
[2H]C([2H])([2H])NC(=O)c1cnc(NC(=O)C2CC2)cc1Nc1nccc2c1N(C)Cc1cn(C)nc1-2 [Compound 64, 6-(cyclopropanecarboxamido)-4-((2,5-dimethyl-4,5-dihydro-2H-pyrazolo[4,3-c][1,7]naphthyridin-6-yl)amino)-N-(methyl-d3)nicotinamide]	> 7.52	> 7.52	< 6.00	< 6.00	< 6.00		< 6.00	6.00 to 6.52
